From patent publication US11103158B2, “Pure non-invasive method for identification of organ diseases or impaired organ function by investigation of marker substances in exhaled air stimulated by inhaled marker substances” (FREIE UNIVERSITÄT BERLIN, priority 2015, dated 2021)
Where two headings read alike, the source gives them in different places.

How the values were obtained:
[1] = test system: CYP 2C9 and CYP 2C19; settings: reported by Mizayawa et al.; cited from earlier work
[2] = PTR-MS of volatile organic compounds in exhaled breath of vegan persons, volunteers and liver patients, also grouped by LiMAx value
[3] = test system: mammary, liver, lung, and other cancers; settings: literature reports (Mizayawa et al.; Gold 1997); cited from earlier work
[4] = in vivo

Row | Compound | concentration in exhaled breath (m/z 137) [4] | concentration in the expiratory air (m/z 137) [4] | also measured
1 | C=C(C)[C@H]1CC=C(C)CC1 [limonene] |  |  | metabolization by enzymes [1]: metabolized by enzymes of the Cytochrome P450 family; concentration in exhaled breath (m/z 137) ([2]; comparison of the three groups (vegan diet, normal diet, liver disease patients), taking error bars into account, FIG. 1A): almost identical; concentration in the expiratory air (m/z 137) ([2]; patients with LiMAx value below 176 compared to LiMAx 176 to 351 or above 351, FIG. 1B): significantly increased
2 | C=C(C)[C@@H]1CC=C(CO)CC1 [perillyl alcohol] |  |  | chemopreventive activity / cancer prevention [3]: prevent mammary, liver, lung, and other cancers
3 | CC1=CCC2CC1C2(C)C (stereo not drawn) [α-pinene] | almost identical | significantly increased | 
4 | C=C1CCC2CC1C2(C)C (stereo not drawn) [β-pinene] | almost identical | significantly increased | 
5 | γ-pinene | almost identical | significantly increased | 
